According to patent publication US6723302B1, “Model for cell migration and use thereof” (The Research Foundation of State University of New York, priority 1996, dated 2004):

Experiments:
[1] = system: human adult dermal fibroblasts; assay: Three-dimensional transmigration model (collagen gel into fibrin gel); format: cell-based; conditions: for inhibition of transmigration by peptide added to the fibrin gel: transmigration stimulated by PR or PDGF-BB
Description: (§1) Primary cultures of human adult dermal fibroblasts were cultured in Dulbecco's modified Eagle's medium (DMEM, Life Technologies) supplemented with 100 U/ml penicillin and 100 μg/ml streptomycin, 42 mmol/l sodium bicarbonate and 10% fetal bovine serum (FBS, Atlanta Biologicals, Norcross, Ga.) at 37° C. and 5% CO2/95% air in a humidified atmosphere. The cells were used between passages 4 and 12.
(§2) Fibroblast cultures at 80% confluence were harvested by treatment with 0.05% trypsin/0.02% EDTA (ethylenediaminetetraacetic acid). Trypsin was inactivated by addition of soy bean trypsin inhibitor in PBS containing 0.2% BSA. The cells were washed twice with DMEM+10% FBS and resuspended at a concentration of 1×10^6 cells/ml. The fibroblasts were mixed with DMEM (5×), 10% FBS and neutralized collagen (Vitrogen 100, Celtrix Labs., Santa Clara, Calif.). In some experiments, FBS was replaced by 30 ng/ml PDGF-BB and 2% BSA. 0.6 ml aliquots of the cell mixture were added to the wells of a 24-well tissue culture plate, precoated with 2% BSA, and the collagen was allowed to polymerize at 37° C. The final concentration of collagen was 1.8 mg/ml and each gel contained 6×10^4 cells. After two hours incubation, the gels were gently detached from the plastic surface to allow contraction, 0.5 ml DMEM+10% FBS was added, and the gels were incubated overnight at 37° C. in 5% CO2.
Fibrinogen was mixed with DMEM (5×) and 0.5 U/ml thrombin (New York Blood Center, New York, N.Y.) so that the final concentration of fibrinogen was 300 μg/ml. Aliquots of 450 μl were added to the wells of a 24-well plate, and after a 2 hour incubation at 37° C. in 5% CO2, the polymerized gels were dried overnight at room temperature under sterile conditions.
Dried fibrin fibril-coated dishes were washed once with PBS and contracted collagen gels were placed on the surface. Fibrinogen, at a final concentration of 300 μg/ml, was mixed with DMEM (5×) and 1.0 U/ml thrombin. When needed, other supplements, such as growth factors, were added to the mixture. The collagen gels were surrounded with the fibrinogen solution so that the fibrin gel was level with the collagen gel (FIG. 1)
The number of migrated cells was evaluated under a Nikon inverted phase microscope by counting identifiable cell nuclei located outside of the contracted collagen gel, either on the fibrin fibril substrate (two-dimensional model) or within the fibrin gel (three-dimensional model). Each condition was assayed in triplicate and experiments were repeated at least three times.

[2] = system: human adult dermal fibroblasts; assay: Two-dimensional outmigration model (collagen gel onto dried fibrin fibrils); format: cell-based; conditions: collagen gel surrounded with liquid medium instead of fibrin gel
Description: as §1
as §2, with “The final concentration of collagen was 1.8 mg/ml and each gel contained 6×10^4 cells. After two hours incubation, the gels were gently detached from the plastic surface to allow contraction, 0.5 ml DMEM+10% FBS was added, and the gels were incubated overnight at 37° C. in 5% CO2.” left out
The number of migrated cells was evaluated under a Nikon inverted phase microscope by counting identifiable cell nuclei located outside of the contracted collagen gel, either on the fibrin fibril substrate (two-dimensional model) or within the fibrin gel (three-dimensional model). […]

In the case of GRGDSP [synthetic RGD peptide], the “inhibition of transmigration by peptide added to the fibrin gel” value [1] is reported as “inhibited”.

In the case of `NCCCCCC(=O)O` [ε-ACA, ε-Amino-n-Caproic acid], the “inhibition of outmigration onto dried fibrin fibrils induced by PDGF-BB” value [2] is reported as “not inhibited”, the “inhibition of transmigration induced by PDGF-BB (protease inhibitors)” value ([1]; in words) is reported as “inhibited” and the “reduction of invasion of the fibrin gel” value ([1]; transmigration induced by PDGF-BB, 500 μg/ml ε-ACA) is reported as “about 80%”.

GRGESP [control-peptide] was tested, and the “inhibition of transmigration by peptide added to the fibrin gel” value [1] was “not”.

B1: PDGF-BB: Recombinant platelet-derived growth factor from ZymoGenetics (protein, UniProt P01127 82-190, looked up)
Platelet-derived growth …: SLGSLTIAEPAMIAECKTRTEVFEISRRLIDRTNANFLVWPPCVEVQRCSGCCNNRNVQCRPTQVQLRPVQVRKIEIVRKKPIFKKATVTLEDHLACKCETVAAARPVT
In the case of B1, the “induction of transmigration of fibroblasts from the collagen gel into the fibrin gel” value ([1]; counted after one day) is reported as “could be induced”.
